Measurements taken from publication PMC12118337, “Development of a Peptide Inhibitor Targeting the C‐SH2 Domain of the SHP2 Phosphatase” (Chembiochem, 2025).
Residues, ends and D or L forms follow the SMILES beside them. *: point of attachment. 5FAM = O=C1OC2(c3ccc(O)cc3Oc3cc(O)ccc32)c2ccc(C(=O)*)cc21; X1 = O=C(O)C(C(=O)O)*

Assays:
[1] = system: CSK SH2 domain; test: FP binding assay, CSK SH2 domain; conditions: 100 nM peptide, three independent experiments
Procedure: buffer and stored in 5 mL binding buffer at 4°C. His-tagged 3C protease (0.5 mg; EMBL) was added to the pooled eluted fractions and dialysed using Spectra Por Dialysis Tubing (MWCO 6-8 kDa, 23 mm; Spectrum Labs) in 1 L of binding buffer at 4°C for 3 hours, then overnight in fresh buffer. A new column was prepared by loading 2 mL Ni-NTA Agarose (Invitrogen) as a 50% slurry in EtOH. The column was washed with 10 mL H2O to remove the EtOH and equilibrated with 10 mL binding buffer. The protein/3C protease mixture was loaded onto the column and incubated for 1 hour at 4°C on a rocker. […] Protein purification was monitored by SDS-PAGE using NuPAGE 4-12% Bis-Tris Protein Gels (Invitrogen) run in MOPS buffer (50 mM MOPS, 50 mM Tris-HCl pH 7.7, 1 mM EDTA, 0.1% SDS) followed by Coomassie staining using Coomassie Brilliant Blue (Roth). […]
(§1) 4. Fluorescence polarization
Fluorescence polarization (FP) was used to measure the binding of FAM-labelled peptides to the SHP2 C-SH2, SHP2 N-SH2, SHP2 PTP, CSK SH2 or Src SH2 domains. […]
concentration of 100 nM in a final volume of 200 µL. […] The FP was immediately measured on a Synergy H1 Microplate Reader (BioTek) with the excitation and emission monitored at 485 nm and 528 nm, respectively, over 30 minutes. FP values were automatically calculated by the Gen5 3.03 (BioTek) software associated with the microplate reader. […]

[2] = target: T1, SHP2 N‐SH2 domain (Homo sapiens, UniProt Q06124); test: Fluorescence polarization (FP) binding assay, SHP2 N-SH2 domain; conditions: 100 nM FAM-labelled peptide, increasing N-SH2 protein, 50 mM HEPES pH 7.5, 150 mM NaCl, 1 mM EDTA, 0.05% Tween 20, FP at 10 min, three independent experiments in technical triplicates, read-out: K D ± SEM, N‐SH2 (FP)
T1 construct: SHP2 N-SH2 domain (1–105), C-SH2 domain (106–220), PTP domain (224–541) and; His6 (pETM22 vector) (N, cleaved yes); made in house; host or cells: E. coli BL21(DE3)
T1 sequence (Q06124 1-105): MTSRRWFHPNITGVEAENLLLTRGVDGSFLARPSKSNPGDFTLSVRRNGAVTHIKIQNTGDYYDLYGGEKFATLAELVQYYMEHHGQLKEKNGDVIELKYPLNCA
Procedure: buffer and stored in 5 mL binding buffer at 4°C. His-tagged 3C protease (0.5 mg; EMBL) was added to the pooled eluted fractions and dialysed using Spectra Por Dialysis Tubing (MWCO 6-8 kDa, 23 mm; Spectrum Labs) in 1 L of binding buffer at 4°C for 3 hours, then overnight in fresh buffer. A new column was prepared by loading 2 mL Ni-NTA Agarose (Invitrogen) as a 50% slurry in EtOH. The column was washed with 10 mL H2O to remove the EtOH and equilibrated with 10 mL binding buffer. The protein/3C protease mixture was loaded onto the column and incubated for 1 hour at 4°C on a rocker. The flow through containing the protein was collected, the column was washed with 100 mL binding buffer and the 3C protease was eluted with 5 mL elution buffer. Protein purification was monitored by SDS-PAGE using NuPAGE 4-12% Bis-Tris Protein Gels (Invitrogen) run in MOPS buffer (50 mM MOPS, 50 mM Tris-HCl pH 7.7, 1 mM EDTA, 0.1% SDS) followed by Coomassie staining using Coomassie Brilliant Blue (Roth). The purified protein was dialysed into the final storage buffer (50 mM HEPES pH 7.5, 150 mM NaCl, 2 mM DTT, 20% glycerol). Aliquots were prepared and stored at -80°C until required. […]
as §1
Fluorescence polarization (FP) was used to measure the binding of FAM-labelled peptides to the SHP2 C-SH2, SHP2 N-SH2, SHP2 PTP, CSK SH2 or Src SH2 domains. Each peptide was added to increasing concentrations of SHP2 C-SH2, SHP2 N-SH2, SHP2 PTP, CSK SH2 or Src SH2 protein in FP buffer (50 mM HEPES pH 7.5, 150 mM NaCl, 1 mM EDTA, 0.05% Tween 20) to give a final peptide […]
concentration of 100 nM in a final volume of 200 µL. For baseline subtraction, each peptide was added to FP buffer, instead of protein, with a final peptide concentration of 100 nM in a final volume of 200 µL. Samples were mixed gently then 3 x 60 µL of each sample was transferred into triplicate wells in a 96-well plate (OptiPlate-96 F Black; PerkinElmer). The FP was immediately measured on a Synergy H1 Microplate Reader (BioTek) with the excitation and emission monitored at 485 nm and 528 nm, respectively, over 30 minutes. FP values were automatically calculated by the Gen5 3.03 (BioTek) software associated with the microplate reader. Data were analysed in Excel 2016 by subtracting baseline values from FP values at 10 minutes. Data were then further analysed in GraphPad Prism 6 by plotting the baseline subtracted FP values against the protein concentration and fitting the data to a variable slope model of non-linear regression to obtain the KD values. Data are from three independent experiments, each performed in technical triplicates.
5. Isothermal titration calorimetry […]
Analysis Software (Malvern Panalytical). For the data analysis, a 1:1 binding stoichiometry between the Ac-ITSM(pTyr) and SH2 domain was assumed. ITC measurements were performed once.

With `CC[C@H](C)[C@H](NC(=O)[C@@H](NC(=O)[C@H](C)NC(=O)[C@H](Cc1ccc(OC(C(=O)O)C(=O)O)cc1)NC(=O)[C@H](CCC(=O)O)NC(=O)[C@@H](NC(=O)[C@H](CCC(N)=O)NC(=O)c1ccc2c(c1)C(=O)OC21c2ccc(O)cc2Oc2cc(O)ccc21)[C@@H](C)O)[C@@H](C)O)C(=O)N[C@@H](CCCCN)C(=O)N[C@@H](Cc1c[nH]cn1)C(=O)N1CCC[C@H]1C(N)=O` [peptide 26] (5FAM-QTEY(X1)ATIKHP-NH2) the “binding to CSK SH2 domain compared to SHP2 C‐SH2 domain” value [1] was “at least two orders of magnitude weaker” and the Kd [2] was over 32 µM.
